From US20200246322A1, “METHOD FOR TREATING GLUTEN-RELATED ALLERGIES AND I[…] WITH LOPERAMIDE” (priority 2019, published 2020)

Test system: gluten intolerance
Test: treating/preventing gluten intolerance with oral loperamide (experience of the inventor)
Assay type: in vivo, patient
Conditions: dosage titrated, as long as it is the type of gluten intolerance that responds to loperamide and the proper daily dosage is adhered to
Description: The present invention may include a new use of the existing OTC medication (generic: loperamide, brand: Immodium™) to be taken orally by patient suffering from gluten allergy/intolerance symptoms. The Loperamide is taken until the gluten allergy/intolerance symptoms are relieved.
The amount of loperamide needed to treat/prevent the symptoms of gluten intolerance can be quite a bit higher than the levels that can cause constipation. In that case, a slow increase in dosage may be necessary in order to create a resistance to the constipatory effects. Titration may be necessary to reach the proper dosage to eliminate the symptoms, starting preferably with the standard lowest dosage of loperamide recommended to treat diarrhea (2 mg tablet after the first loose stool, 1 tablet after each subsequent loose stool) and adding 1×2 mg tablet every 6 hours until stool consistency normalizes, at which point the symptoms of gluten intolerance will disappear completely, if it is the type of gluten intolerance that is treatable with loperamide. In the experience of the inventor, the rate of successfully treating/preventing gluten intolerance completely is 100%, as long as it is the type of gluten intolerance that responds to loperamide, and the proper daily dosage is adhered to once it is determined to be effective for the patient.

In the case of `CN(C)C(=O)C(CCN1CCC(O)(c2ccc(Cl)cc2)CC1)(c1ccccc1)c1ccccc1` [loperamide], the “rate of successfully treating/preventing gluten intolerance completely” value is reported as 100%.
